Values joined by “and” are separate entries in the source; they are usually repeats but may differ in a detail not shown here. Equal values may be shown once. Read-outs that look alike come from different tables or passages of the source.
Experiments:
HsProRS = HsProRS (Homo sapiens, UniProt P07814); test: TR-FRET ligand displacement assay with tracer MAT379 (CoraFluor-1-Halo and anti-His6 antibody formats); assay type: binding; set-up: made in house; host or cells: E. coli SoluBL-21; conditions: SI Fig 15, antibody format, listed as Halofuginone (1)
Sequence of HsProRS (P07814 996-1512): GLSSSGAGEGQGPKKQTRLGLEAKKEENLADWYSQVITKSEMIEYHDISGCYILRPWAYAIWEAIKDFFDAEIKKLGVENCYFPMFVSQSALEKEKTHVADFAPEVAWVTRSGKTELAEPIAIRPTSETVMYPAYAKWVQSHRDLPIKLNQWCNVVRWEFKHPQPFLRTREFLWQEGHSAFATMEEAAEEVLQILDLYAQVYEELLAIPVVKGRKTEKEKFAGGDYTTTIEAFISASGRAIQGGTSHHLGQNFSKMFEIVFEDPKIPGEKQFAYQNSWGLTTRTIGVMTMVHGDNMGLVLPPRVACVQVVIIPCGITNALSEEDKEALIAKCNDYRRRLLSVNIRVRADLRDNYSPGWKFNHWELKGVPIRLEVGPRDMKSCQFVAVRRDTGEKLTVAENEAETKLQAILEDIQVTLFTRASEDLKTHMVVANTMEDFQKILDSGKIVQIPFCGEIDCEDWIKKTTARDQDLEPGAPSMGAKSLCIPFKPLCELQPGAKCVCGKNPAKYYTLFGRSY

P. falciparum Dd2-2D4 = test: P. falciparum asexual blood stage (ABS) growth assay, SYBR Green, 72 h, wild-type parasites; assay type: cell-based, Plasmodium falciparum; conditions: for parasite growth, replicate wells (Fig 1b): Dd2-2D4
[1] = tested on: HFGR-I P. falciparum (elevated proline homeostasis and PfcProRS^L482H); test: P. falciparum ABS growth assay, SYBR Green, 72 h, HFGR-I parasites; assay type: cell-based, Plasmodium falciparum; conditions: HFGR-I, listed as Halofuginone (1)
Outline: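 EC50 came from SYBR Green 1 fluorescence measured 72 h after dosing in triplicate dose-response. Dihydroartemisinin at 10 μM set full kill and untreated wells set full growth. Cultures of the Dd2 lines were seeded at 1% hematocrit and 1% parasitemia in Albumax-supplemented RPMI.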

[2] = tested on: P. falciparum Dd2-2D4 NCP26 selections S1-3; test: ABS growth assay on bulk populations and clones from NCP26 resistance selections S1-3; assay type: cell-based, Plasmodium falciparum; conditions: for EC50: Plasmodium falciparum; for Fold-change Resistance: independent experiments
Method: In short, P. falciparum erythrocytic-stage parasites at 1% parasitemia and 1% hematocrit in RPMI + 0.5% Albumax were seeded at 40 μL/well in 384-well plates with test compounds in triplicate, dose-response format with 10 μM dihydroartemisinin as a kill-control and blank (no compound) wells as a growth-control. […] After 72 h, growth was quantified by measuring fluorescence (Molecular Devices SpectraMax iD5) following SYBR Green 1 staining. Data were analyzed in Excel and plotted in PRISM (V. 8.4.3–9.1.0, GraphPad).
This cycle was repeated for ~50 generations (~100 days), corresponding to 5–6 cycles of drug pressure.
Clonal parasites were isolated from each selection flask by limiting dilution of ring stage parasites in 96-well plates to an average of 0.8 and 0.2 parasites per well.

PfcProRS = target: T1, PfcProRS (Plasmodium falciparum, UniProt Q8I5R7); assay type: binding; conditions: for dose-response signal (normalized), SI Fig 8: single replicates, listed as Halofuginone (1)
T1 construct: made in house; host or cells: E. coli SoluBL-21
T1 sequence (Q8I5R7 249-746): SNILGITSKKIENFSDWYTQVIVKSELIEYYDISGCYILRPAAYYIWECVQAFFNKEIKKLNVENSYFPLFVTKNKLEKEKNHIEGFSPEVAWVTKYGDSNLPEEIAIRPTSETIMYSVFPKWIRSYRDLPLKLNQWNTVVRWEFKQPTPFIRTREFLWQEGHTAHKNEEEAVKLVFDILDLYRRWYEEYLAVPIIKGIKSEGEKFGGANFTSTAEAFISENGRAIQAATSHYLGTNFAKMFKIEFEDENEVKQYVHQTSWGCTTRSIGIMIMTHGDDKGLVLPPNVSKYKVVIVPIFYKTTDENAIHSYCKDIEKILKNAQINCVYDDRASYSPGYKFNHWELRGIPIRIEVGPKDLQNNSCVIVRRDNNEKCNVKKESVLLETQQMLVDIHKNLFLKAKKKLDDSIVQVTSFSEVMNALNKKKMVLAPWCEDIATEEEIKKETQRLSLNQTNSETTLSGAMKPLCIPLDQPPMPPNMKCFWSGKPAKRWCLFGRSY

[3] = tested on: HFGR-I P. falciparum (elevated proline homeostasis and PfcProRS^L482H); conditions: HFGR-I vs wild-type; cited from earlier work

O=C(CC1NCCCC1O)Cn1cnc2cc(Br)c(Cl)cc2c1=O (centres unmarked) [Halofuginone]
normalized TR-FRET signal (dose-response replicates) (HsProRS; Log[inhibitor] (M) -9.708): 8.31E-01 and 9.16E-01 and 9.30E-01 and 9.90E-01 and 7.66E-01 and 7.98E-01 | normalized TR-FRET signal (dose-response replicates) (HsProRS; Log[inhibitor] (M) -10.018): 7.34E-01 and 7.78E-01 and 9.27E-01 and 9.57E-01 and 7.69E-01 and 9.42E-01 | normalized TR-FRET signal (dose-response replicates) (HsProRS; Log[inhibitor] (M) -10.319): 1.03E+00 and 8.60E-01 and 1.21E+00 and 9.50E-01 and 1.14E+00 and 9.79E-01 | normalized TR-FRET signal (dose-response replicates) (HsProRS; Log[inhibitor] (M) -10.62): 1.02E+00 and 8.83E-01 and 9.73E-01 and 1.04E+00 and 9.53E-01 and 9.56E-01 | normalized TR-FRET signal (dose-response replicates) (HsProRS; Log[inhibitor] (M) -10.921): 1.01E+00 and 1.12E+00 and 1.14E+00 and 9.45E-01 and 8.05E-01 and 9.06E-01 | normalized TR-FRET signal (dose-response replicates) (HsProRS; Log[inhibitor] (M) -11.098): 9.11E-01 and 1.15E+00 and 1.13E+00 and 1.03E+00 and 9.58E-01 and 9.14E-01 | parasite growth, replicate wells (Fig 1b) (P. falciparum Dd2-2D4; Log[inhibitor] (M) -7.000): 1.00E+00 | parasite growth, replicate wells (Fig 1b) (P. falciparum Dd2-2D4; Log[inhibitor] (M) -7.301): 1.00E+00 | parasite growth, replicate wells (Fig 1b) (P. falciparum Dd2-2D4; Log[inhibitor] (M) -7.602, listed as Halofuginone (1)): 0.00E+00 (2×) and 1.00E+00 | parasite growth, replicate wells (Fig 1b) (P. falciparum Dd2-2D4; Log[inhibitor] (M) -7.903, listed as Halofuginone (1)): 2.00E+00 (2×) and 0.00E+00 | parasite growth, replicate wells (Fig 1b) (P. falciparum Dd2-2D4; Log[inhibitor] (M) -8.204, listed as Halofuginone (1)): 1.00E+00 (2×) and 0.00E+00 | parasite growth, replicate wells (Fig 1b) (P. falciparum Dd2-2D4; Log[inhibitor] (M) -8.505): 0.00E+00 | parasite growth, replicate wells (Fig 1b) (P. falciparum Dd2-2D4; Log[inhibitor] (M) -8.806, listed as Halofuginone (1)): 0.00E+00 (2×) and -1.00E+00 | parasite growth, replicate wells (Fig 1b) (P. falciparum Dd2-2D4; Log[inhibitor] (M) -9.107, listed as Halofuginone (1)): 5.00E+00 (2×) and 4.00E+00 | parasite growth, replicate wells (Fig 1b) (P. falciparum Dd2-2D4; Log[inhibitor] (M) -9.408, listed as Halofuginone (1)): 9.10E+01 and 8.70E+01 and 8.90E+01 | parasite growth, replicate wells (Fig 1b) (P. falciparum Dd2-2D4; Log[inhibitor] (M) -9.709, listed as Halofuginone (1)): 1.04E+02 and 1.07E+02 (2×) | parasite growth, replicate wells (Fig 1b) (P. falciparum Dd2-2D4; Log[inhibitor] (M) -10.010, listed as Halofuginone (1)): 1.06E+02 and 1.04E+02 (2×) | parasite growth, replicate wells (Fig 1b) (P. falciparum Dd2-2D4; Log[inhibitor] (M) -10.311, listed as Halofuginone (1)): 9.80E+01 and 9.90E+01 and 9.70E+01 | EC50 (P. falciparum Dd2-2D4; Plasmodium falciparum, DD2, SI Fig 16b, values on -log scale, read-out: ABS - Dd2-2D4 (converted)): 0.519 nM | parasite growth, replicate wells (Fig 1b) ([1]; Log[inhibitor] (M) -5.204): 3.00E+00 and 2.00E+00 and 4.00E+00 | parasite growth, replicate wells (Fig 1b) ([1]; Log[inhibitor] (M) -5.505): 4.00E+00 (2×) and 3.00E+00 | parasite growth, replicate wells (Fig 1b) ([1]; Log[inhibitor] (M) -5.806): 3.00E+00 (2×) and 4.00E+00 | parasite growth, replicate wells (Fig 1b) ([1]; Log[inhibitor] (M) -6.107): 6.00E+00 (2×) and 5.00E+00 | parasite growth, replicate wells (Fig 1b) ([1]; Log[inhibitor] (M) -6.408): 1.70E+01 (2×) and 1.60E+01 | parasite growth, replicate wells (Fig 1b) ([1]; Log[inhibitor] (M) -6.709): 5.40E+01 and 5.50E+01 (2×) | parasite growth, replicate wells (Fig 1b) ([1]; Log[inhibitor] (M) -7.000): 7.70E+01 and 8.00E+01 and 8.50E+01 | parasite growth, replicate wells (Fig 1b) ([1]; Log[inhibitor] (M) -7.010): 8.50E+01 and 8.60E+01 and 8.30E+01 | parasite growth, replicate wells (Fig 1b) ([1]; Log[inhibitor] (M) -7.301): 9.80E+01 and 1.03E+02 and 9.90E+01 | parasite growth, replicate wells (Fig 1b) ([1]; Log[inhibitor] (M) -7.311): 9.50E+01 and 9.00E+01 and 9.10E+01 | parasite growth, replicate wells (Fig 1b) ([1]; Log[inhibitor] (M) -7.602): 1.01E+02 and 1.03E+02 and 1.05E+02 | parasite growth, replicate wells (Fig 1b) ([1]; Log[inhibitor] (M) -7.903): 1.04E+02 and 1.03E+02 and 1.06E+02 | parasite growth, replicate wells (Fig 1b) ([1]; Log[inhibitor] (M) -8.204): 1.05E+02 and 1.07E+02 and 1.03E+02 | parasite growth, replicate wells (Fig 1b) ([1]; Log[inhibitor] (M) -8.505): 1.06E+02 and 1.04E+02 and 1.02E+02 | EC50 ([2]; DD2, cell line S1 - Clone A8, read-out: EC50 [nM] mean): 0.641 nM | EC50 ([2]; DD2, cell line S1 - bulk population, read-out: EC50 [nM] mean): 0.951 nM | EC50 ([2]; DD2, cell line S2 - Clone A3, read-out: EC50 [nM] mean): 0.36 nM | EC50 ([2]; DD2, cell line S2 - Clone B9, read-out: EC50 [nM] mean): 0.694 nM | EC50 ([2]; DD2, cell line S2 - Clone C5, read-out: EC50 [nM] mean): 0.439 nM | EC50 ([2]; DD2, cell line S2 - bulk population, read-out: EC50 [nM] mean): 0.432 nM | EC50 ([2]; DD2, cell line S3 - Clone B3, read-out: EC50 [nM] mean): 2.51 nM | EC50 ([2]; DD2, cell line S3 - Clone B7, read-out: EC50 [nM] mean): 2.01 nM | EC50 ([2]; DD2, cell line S3 - bulk population, read-out: EC50 [nM] mean): 2.56 nM | EC50 ([2]; DD2, read-out: EC50 [nM] mean, cell line S3 - Clone B2): 2.75 nM | Fold-change Resistance ([2]; S1 - Clone A8): 0.97 and 0.75 and 1.48 | Fold-change Resistance ([2]; S2 - Clone B9): 0.89 and 1.08 | Fold-change Resistance ([2]; S2 - Clone C5): 0.56 and 0.68 | Fold-change Resistance ([2]; S3 - Clone B2): 3.65 and 3.48 | Fold-change Resistance ([2]; S3 - Clone B3): 3.93 and 2.72 and 3.23 | Fold-change Resistance ([2]; S3 - Clone B7): 2.66 and 3.07 and 3.15 | binding mode with respect to substrates (ATP, proline) (PfcProRS): ATP-uncompetitive binding | fold increased affinity in the presence of ATP (PfcProRS; 500 μM ATP vs 0 μM ATP): > 6000 fold | dose-response signal (normalized), SI Fig 8 (PfcProRS; Log[inhibitor] (M) -5.000): 7.25E-01 and 6.60E-01 and 7.89E-01 | dose-response signal (normalized), SI Fig 8 (PfcProRS; Log[inhibitor] (M) -5.258): 8.77E-01 and 7.58E-01 and 8.28E-01 | dose-response signal (normalized), SI Fig 8 (PfcProRS; Log[inhibitor] (M) -5.517): 8.36E-01 and 8.59E-01 and 9.08E-01 | dose-response signal (normalized), SI Fig 8 (PfcProRS; Log[inhibitor] (M) -5.775): 9.71E-01 and 9.45E-01 and 1.00E+00 | dose-response signal (normalized), SI Fig 8 (PfcProRS; Log[inhibitor] (M) -6.018): 9.98E-01 and 1.00E+00 and 1.01E+00 | dose-response signal (normalized), SI Fig 8 (PfcProRS; Log[inhibitor] (M) -6.281): 9.70E-01 and 1.00E+00 and 9.36E-01 | dose-response signal (normalized), SI Fig 8 (PfcProRS; Log[inhibitor] (M) -6.535): 9.87E-01 and 8.91E-01 and 9.43E-01 | dose-response signal (normalized), SI Fig 8 (PfcProRS; Log[inhibitor] (M) -6.796): 1.03E+00 (2×) and 1.00E+00 | dose-response signal (normalized), SI Fig 8 (PfcProRS; Log[inhibitor] (M) -7.056): 9.55E-01 and 1.03E+00 (2×) | dose-response signal (normalized), SI Fig 8 (PfcProRS; Log[inhibitor] (M) -7.319): 1.02E+00 (2×) and 9.30E-01 | dose-response signal (normalized), SI Fig 8 (PfcProRS; Log[inhibitor] (M) -7.553): 9.85E-01 and 1.03E+00 and 9.40E-01 | dose-response signal (normalized), SI Fig 8 (PfcProRS; Log[inhibitor] (M) -7.796): 9.66E-01 and 1.04E+00 and 1.00E+00 | dose-response signal (normalized), SI Fig 8 (PfcProRS; Log[inhibitor] (M) -8.097): 1.01E+00 and 9.81E-01 and 1.00E+00 | dose-response signal (normalized), SI Fig 8 (PfcProRS; Log[inhibitor] (M) -8.398): 9.48E-01 and 1.10E+00 and 1.01E+00 | dose-response signal (normalized), SI Fig 8 (PfcProRS; Log[inhibitor] (M) -8.585): 1.08E+00 and 9.61E-01 and 9.66E-01 | PfcProRS -- best Kd (PfcProRS; SI Fig 16a, values on -log scale): 9.298 | fold less sensitive (HFGR-I parasites) [3]: ~ 400 fold

Source: paper PMC9403976, “Elucidating the path to Plasmodium prolyl-tRNA synthetase inhibitors that overcome halofuginone resistance” (Nature Communications, 2022)
